From patent US6399568B1, “Cyclic tetrapeptide derivatives and medicinal use thereof” (Japan Energy Corporation, priority 1997, dated 2002)
Where two headings read alike, the source gives them in different places. Non-standard residues stand in square brackets, D forms with d. Residues, ends and D or L forms follow the SMILES beside them. *: point of attachment. Aoe = N[C@@H](CCCCCC(=O)[C@@H]1CO1)C(=O)O; Asu = N[C@@H](CCCCCC(=O)O)C(=O)O; dPip = O=C(O)[C@H]1CCCCN1; Boc = CC(C)(C)OC(=O)*; Aib = CC(C)(N)C(=O)O; NHOH = ON*

Experiments:
[1] = target: Mouse histone deacetylase; type: biochemical
Experimental: In an enzyme system using a radio-labelled acetylated histone as a substrate, histone deacetylase enzyme inhibiting activity was evaluated. The basic conditions were in accordance with the method of Yoshida et al. (J. Biol. Chem., 265, 17174-17179, 1990).
Mouse histone deacetylase to be used was partially purified from FM3A cells. Cells were suspended in HDA buffer (15 mM potassium phosphate, 5% glycerol, 0.2 mM EDTA, pH 7.5), homogenized and centrifuged (35000×g, 10 min) to collect the nuclei which in turn were homogenized in the same buffer containing 1 M (NH4)2SO4. After ultrasonic disruption and centrifugation, the concentration of (NH4)2SO4 in the supernatant was increased to 3.5 M to precipitate deacetylase enzyme proteins. This precipitate was redissolved in HDA buffer, dialyzed against HDA buffer, applied to DEAE-cellulose column and eluted in NaCl gradient. Active fractions were used as a histone deacetylase enzyme solution.
As a substrate, [^3H]acetyl histone was used. In a culture solution of FM3A cells in the presence of 5 mM sodium n-butyrate, [^3H]acetate was added, followed by incubation for 30 minutes to radio-label the histone. The histone was prepared in a conventional manner and used as a substrate solution.
An assay was performed by adding a compound to be tested at a given concentration while using a no-addition control group, and by incubating the substrate solution and the enzyme solution at 37° C. for 10 minutes (reaction volume, 100 μl). The enzyme reaction was stopped by adding 10 μl of concentrated hydrochloric acid and the excised [^3H]acetate was extracted with ethyl acetate for radioactivity measurement. The inhibiting activity was expressed by a concentration at which the enzyme activity in the control group was inhibited by 50% (50% inhibiting concentration).

[2] = system: B16/BL6 cells; test: MHC class-I molecule expression promoting activity; type: cell-based, mouse; details: for conc. for 2-fold expression (nM) mean: mean of a plurality of assays; for conc. for 2-fold expression (nM) mean / Twice Promoting Concentration Cx2: 72 hours; for MHC class-I molecule expression promoting action: FIGS. 3 and 4, dependence on concentration of addition; for Twice Promoting Concentration Cx2: concentration at which MHC class-I expression is twice that without addition
Experimental: The cancer cells used were mouse melanoma cells, B16/BL6 cells, provided by, the National Cancer Institute, U.S.A. Said cells were cultivated in MEM media supplemented with 10% FBS at 37° C. in the presence of 5% carbon dioxide in an humidified incubator.
A compound to be tested was preliminarily dissolved in dimethyl sulfoxide (DMSO) and adjusted to a concentration of 100 mM or 10 mM (source solution).
Said B16/BL6 cells were inoculated on 96 well microplate at a cell density of 5000 cells per well, each well containing 200 μl of said medium. […] Thereafter, each well was once washed with PBS (phosphate buffered saline) and floating cells and the medium were removed. Then, the well was treated with 0.1% glutaraldehyde solution for 3 minutes to fix the cells.
The amount of MHC class-I molecule expressed on the surface of the fixed cells was measured by the following method. Anti-H-2K^bD^bD^d antibody, which is an antibody against mouse MHC classI molecule (commercially available from Meiji Milk Co., Ltd), was used as a primary antibody, biotinylated anti-mouse IgG+M (commercially available from Chemicon) was used as a secondary antibody, and streptavidin-β-galactosidase conjugate (commercially available from BRL) was reacted as a labelling enzyme. The amount of the thus labelled enzyme β-galactosidase was measured in a microplate reader by recording the fluorescent intensity (excitation: 365 nm, fluorescence: 450 nm) derived from the enzymaticreaction product using 4-methylumbelliferyl-β-D-galactoside (commercially available from Nacalai Tesque) as a substrate. […] The value obtained by subtracting said background level from the, actually measured value (an apparent value including the background level) was the true measurement reflecting the amount of expressed MHC class-I molecule.
A group without the addition of any compound to be tested was used as a reference group and the measurement of MHC class-I molecule expressed in said group was used as a standard value. The amount of MHC class-I molecule expressed at a concentration of addition of each test compound is shown as a relative amount, said standard value taken as one (1). For each compound to be tested, various concentrations of addition were selected to investigate the dependency of MHC class-I molecule expression promoting action on the concentration of addition.

[3] = system: leukemia L1210 cell line; test: Cell proliferation inhibition (72 hours); type: cell-based, mouse; details: read-out: 50% proliferation inhibiting concentration L1210 (nM) mean
Text: (§1) In order to verify the action of the cyclic tetrapeptide derivative according to the present invention in inhibiting cell proliferation in cancerized cells, the action on the proliferation of the aforementioned B16/BL6 cells was investigated. The evaluation of cell proliferation rates was done utilizing a commercially available measuring kit, specifically, from Promega under the trade name CellTiter 96 Aqueous Non-Radioactive Proliferation Assay Kit. In the measuring kit, the amount of products through reduction of a reagent tetrazolium compound (3-(4,5-dimethylthiazol-2-yl)-5-(3-carboxymethoxyphenyl)-2-(4-sulfophenyl)-2H-tetrazolium, inner salt; MTS) by viable animal cells is determined by detecting spectrophotometrically the color generated from the products. Since the amount of products is proportional to the amount of viable cells, this kit is utilized to evaluate the amount of viable cells.
(§2) According to the procedure of Test Example 1, B16/BL6 cells are inoculated in a 96 well microplate and cultured for 24 hours. Then, 10 μl of a solution of the source solution of a compound to be tested which has been diluted to a predetermined amount per well is added. Thereafter, culture is continued for additional 48 hours and 20 μl of a reagent solution in the aforementioned CellTiter 96 Aqueous Non-Radioactive Proliferation Assay Kit is then added. After incubation is continued at 37° C. for 1 hour, the amount of color generation is measured as an absorbance at 490 n musing a microplate reader.
(§3) The amount of cell proliferation of a group to which a compound to be tested is added is expressed in a relative value as compared to the standard cell proliferation (100%) in a control group to which no compound to be tested is added. For each compound tested, the amounts of cell proliferation were measured at different concentrations of addition and the dependence of the quantitative cell proliferation on the concentration of addition was investigated. From the results, a concentration of addition at which the amount of cell proliferation was inhibited by 50% relative to the amount of cell proliferation in the control group without addition was determined.
(§4) The test method was in accordance with the above-mentioned procedure, except that the period of incubation after the addition of a compound was 72 hours.
(§5) As illustrative examples, results are shown for an evaluation using mouse malignant melanoma B16/BL6 and B16 cell lines; leukemia L1210 cell line, colon cancer Colon26 cell line, and liver cancer MH134 cell line as cancer cells. For the cell proliferation inhibiting action of each compound tested for these cancer cells, 50% proliferation inhibiting concentrations are shown in Table 4.

[4] = system: liver cancer MH134 cell line; test: Cell proliferation inhibition (72 hours); type: cell-based, mouse; details: read-out: 50% proliferation inhibiting concentration MH134 (nM) mean
Text: as §1, §2, §3, §4, §5

[5] = system: colon cancer Colon26 cell line; test: Cell proliferation inhibition (72 hours); type: cell-based, mouse; details: read-out: 50% proliferation inhibiting concentration Colon 26 (nM) mean
Text: as §1, §2, §3, §4, §5

[6] = system: B16/BL6 cells; test: Inhibitory effect on cell proliferation (MTS, 48 hours); type: cell-based, mouse; details: 48 hours after addition; read-out: 50% inhibiting concentration
Text: as §1, §2, §3

[7] = system: mouse malignant melanoma B16/BL6 cell line; type: cell-based; details: 72 hours; read-out: 50% proliferation inhibiting concentration B16/BL6 (nM) mean
Text: as §1
as §2, with “Then, 10 μl of a solution of the source solution of a compound to be tested which has been diluted to a predetermined amount per well is added.” left out
as §3, with “investigated.” for “investigated. From the results, a concentration of addition at which the amount of cell proliferation was inhibited by 50% relative to the amount of cell proliferation in the control group without addition was determined.”
as §4

[8] = system: mouse malignant melanoma B16 cell line; test: Cell proliferation inhibition (72 hours); type: cell-based; details: read-out: 50% proliferation inhibiting concentration B16 (nM) mean
Text: as §1, §2, §3, §4, §5

[9] = target: histone deacetylase; test: Histone deacetylase enzyme inhibiting activity, synthetic peptide substrate; type: biochemical, mouse; details: enzyme from B16/BL6 cells; [3H]acetylated histone H4 peptide; 37° C. 3 hours
Experimental: The preparation of histone deacetylase was performed essentially according to the method of Yoshida et al. (J. Biol. Chem., 265,17174-17179, 1990). The enzyme to be used was partially purified from B16/BL6 cells. The cells were suspended in HDA buffer (15 mM potassium phosphate, 5% glycerol, 0.2 mM EDTA, […], pH 7.5), homogenized and centrifuged (2500×g, 10 min) to collect the nuclei, which in turn were homogenized in the same buffer containing 1 M (NH4)2SO4. After ultrasonic disruption and centrifugation, the concentration of (NH4)2SO4 in the collected supernatant was increased to 3.5 M to precipitate histone deacetylase. This precipitate was redissolved in HDA buffer, subjected to gel filtration to replace the solvent with HDA buffer, and used as a crude histone deacetylase enzyme solution.
As a substrate, a synthetic substrate peptide, [^3H]acetylated histone H4 peptide was used. This [^3H]acetylated histone H4 peptide was obtained by synthesizing the N-terminal peptide of histone H4; […] (the C-terminal being cysteine) and radio-acetylating with ^3H -acetic anhydride.
An assay was performed by incubating the synthetic substrate solution and the enzyme solution at 37° C. for 3 hours in the presence of a compound to be tested (reaction volume, 100 μl). The reaction was stopped by adding 25 μl of 1 M HCl and 0.2 M acetic acid and [^3H]acetate excised by the enzyme reaction was extracted with ethyl acetate for radioactivity measurement. As a control group, the same procedure was repeated without addition of any test compound to the reaction system. The inhibiting activity was expressed by a concentration at which the histone deacetylase enzyme activity in the control group was inhibited by 50% (50% inhibiting concentration).

[10] = enzyme from FM3A cells, [3H]acetyl histone, 37° C. 10 minutes

SMILES | IC50 [1, 10] [µM] | MHC class-I molecule expression promoting activity ([2]; allowed to act on animal cells (summary statement)) | conc. for 2-fold expression (nM) mean [2] [nM] | IC50 [3] [nM] | IC50 [4] [nM] | IC50 [5] [nM] | IC50 [6] [µM] | IC50 [7] [nM] | MHC class-I molecule expression promoting action [2] | Twice Promoting Concentration Cx2 [2] [nM] | IC50 [8] [nM] | IC50 [9] [µM] | IC50 [1] [µM]
O=C1N[C@@H](Cc2ccccc2)C(=O)N2CCCC[C@@H]2C(=O)N[C@@H](CCCCCC(=O)[C@@H]2CO2)C(=O)N[C@H]1Cc1ccccc1 [trapoxin A, reference compound] (cyclo([Aoe]FF[dPip])) | 0.00047 | exhibit the MHC class-I molecule expression promoting activity | 3.59 | – | – | – | – | – | – | – | – | – | –
CC1(C)NC(=O)[C@H](CCCCCC(=O)NO)NC(=O)[C@H]2CCCN2C(=O)[C@H](Cc2ccccc2)NC1=O [HDA-15, cyclo(-Asu(NHOH)-Aib-Phe-D-Pro-)] (cyclo([Aib]F[dP][Asu](NHOH))) | – | – | 33.2 | 193 | 946 | 908 | 0.0925 | 110 | exhibited MHC class-I molecule expression promoting action | 36.2 | 1230 | – | –
CC(C)C[C@@H]1NC(=O)[C@@H](Cc2ccccc2)NC(=O)[C@H](CCCCCC(=O)NO)NC(=O)[C@@H]2CCCN2C1=O [HDA-28, cyclo(-L-Asu(NHOH)-D-Phe-L-Leu-L-Pro-)] (cyclo([Asu](NHOH)[dF]LP)) | 0.00604 | – | 80.2 | 1330 | 4830 | 7370 | – | 470 | – | – | 3820 | – | –
CC(=O)NCCCC[C@@H]1NC(=O)[C@H]2CCCN2C(=O)[C@H](Cc2ccccc2)NC(=O)[C@H](Cc2ccccc2)NC1=O [HDA-6, cyclo(-L-Lys(Ac)-L-Phe-L-Phe-D-Pro-)] (cyclo(FF[dP]K(Ac))) | 27.8 | – | 240000 | – | – | – | – | – | – | – | – | – | –
C[C@@H]1NC(=O)[C@H]2CCCN2C(=O)[C@H](CCCCCC(=O)NO)NC(=O)[C@@H](C)NC1=O [HDA-13, cyclo(-L-Asu(NHOH)-D-Pro-L-Ala-D-Ala-)] (cyclo(A[dA][Asu](NHOH)[dP])) | – | – | 406 | 2770 | 7920 | 11000 | – | 866 | – | – | 15400 | – | –
O=C(CCCCCC[C@@H]1NC(=O)[C@H]2CCCN2C(=O)[C@H](Cc2ccccc2)NC(=O)[C@H](Cc2ccccc2)NC1=O)NO [HDA-17, cyclo(-Aaz(NHOH)-Phe-Phe-D-Pro-)] | 0.0198 | – | 990 | 7380 | 19900 | 29300 | – | 1260 | exhibited MHC class-I molecule expression promoting action | 1120 | 23500 | 0.0247 | –
CCCC(=O)[O-].[Na+] [Sodium n-butyrate, reference compound] | – | – | – | – | – | – | – | – | – | – | – | – | 119
CC(C)(C)OC(=O)NCCCC[C@@H]1NC(=O)[C@H](CCCCCC(=O)NO)NC(=O)[C@H]2CCCN2C(=O)[C@H](Cc2ccccc2)NC1=O [HDA-32, cyclo(-L-Asu(NHOH)-L-Lys(Boc)-L-Phe-D-Pro-)] (cyclo([Asu](NHOH)K(Boc)F[dP])) | 0.00495 | – | 773 | – | – | – | – | – | – | – | – | – | –
O=C(CCCC[C@@H]1NC(=O)[C@H]2CCCN2C(=O)[C@H](Cc2ccccc2)NC(=O)[C@H](Cc2ccccc2)NC1=O)NO [HDA-18, cyclo(-Api(NHOH)-Phe-Phe-D-Pro-)] | 0.39 | – | 10900 | > 100000 | > 100000 | > 100000 | – | 59300 | exhibited MHC class-I molecule expression promoting action | 11600 | > 100000 | 0.15 | –
O=C(CCCCC[C@@H]1NC(=O)[C@H]2CCCN2C(=O)[C@H](Cc2ccccc2)NC(=O)[C@@H](Cc2ccccc2)NC1=O)NO [HDA-27, cyclo(-L-Asu(NHOH)-D-Phe-L-Phe-D-Pro-)] (cyclo([Asu](NHOH)[dF]F[dP])) | – | – | 3.01 | 53 | 236 | 277 | – | 18 | – | – | 309 | 0.00344 | 0.00145
CC(C)C[C@@H]1NC(=O)[C@@H](Cc2ccccc2)NC(=O)[C@H](CCCCCC(=O)NO)NC(=O)[C@H]2CCCN2C1=O [HDA-29, cyclo(-L-Asu(NHOH)-D-Phe-L-Leu-D-Pro-)] (cyclo([Asu](NHOH)[dF]L[dP])) | 0.00159 | – | 5.41 | 43.8 | 176 | 198 | – | 15.8 | – | – | 293 | – | –
